# Key:
# [1] = test system: modèle murin d'arthrose (MIA); assay: Knee histology (safranine-O / Fast Green) in murine osteoarthritis model (MIA); type: in vivo, souris C57BL7; conditions: intra-articular injections at 1, 2, 3 and 4 weeks after induction; histology at 8 weeks; versus MIA+vehicule; figure 5
# From the text: (§1) Cette étude a été autorisée par le ministère de l'Enseignement Supérieur, de la Recherche et de l'Innovation après avis favorable du comité d'éthique locale, CENOMEXA (agrément n°B14118015). L'étude est réalisée au sein d'une animalerie agrée (UMS-CYCERON). Des souris C57BL7 mâles, âgées de 10 semaines ont été utilisés. Les souris étaient placées par cage de 8, en cycle inversé, nourriture et eau disponible ad libidum. L'état de santé de chaque souris était évalué quotidiennement.
# (§2) Les injections intra-articulaires (MIA ou tolcapone) ont également été réalisées sous anesthésie générale. Après un repérage clinique du ligament patellaire, les injections sont faites par voie intra articulaire du genou après passage du ligament patellaire à l'aiguille 27 Gauge.
# Les articulations sont placées dans une solution de fixation (formaldehyde 37%, PBS) pendant 3 jours, puis décalcifié à l'aide d'Osteosoft pendant 48h. Ensuite, les articulations sont conservées à -80°C dans l'Optimal Cutting Temperature compound (OCT). Des coupes de 10 µm d'épaisseur ont été réalisées à -25°C à l'aide d'un Cryostat (CM 3050 S, Leica BIOSYSTEMS, France), puis montées sur des lames de microscopies SuperFrost®. Les lames sont ensuite colorées au Fast Green puis à la safranine-O. La safranine-O permet de mettre en évidence les composants du cartilage articulaire. […]
# [2] = test system: modèle murin d'arthrose (MIA); assay: Von Frey filament test (mechanical allodynia) in murine osteoarthritis model (MIA); type: in vivo, souris C57BL7; conditions: intra-articular injections at 1, 2, 3 and 4 weeks after induction of osteoarthritis; arthritic paw relative to contralateral paw; figure 4B
# From the text: as §1, §2
# L'allodynie (douleur déclenchée pour un stimulus qui est normalement indolore) mécanique est évaluée par le test des filaments de Von Frey (BIOSEB In Vivo Research Instruments®). Ce test repose sur le principe selon lequel lorsque l'extrémité du filament (de longueur et de diamètre donnés) est appliquée perpendiculairement, la force exercée par le filament augmente jusqu'à ce que le filament fléchisse. Au-delà, la force exercée par le filament reste constante. Pour ce test, les souris sont placées dans une cage individuelle, sur une grille. Une période d'habituation de 30 minutes était requise avant le début du test. […]
# [3] = test system: chondrocytes articulaires humains; assay: RT-PCR mRNA expression in IL-1β-stimulated human articular chondrocytes; type: cell-based; conditions: IL-1β 1ng/mL, 48h, increasing doses of tolcapone, mRNA normalised to RPL13A
# From the text: Les cellules ont été obtenus à partir de déchets opératoires selon la réglementation en vigueur (protocole approuvé par le comité de protection des personnes (CPP) Nord-Ouest III). Après la signature du consentement libre et éclairé par les patients, des têtes fémorales, des membranes synoviales et de la moelle osseuse sont récupérées à l'issue d'opération d'arthroplastie de la hanche chez des patients arthrosiques.
# Les têtes fémorales sont disséquées et des copeaux de cartilages sont réalisés. Les chondrocytes sont libérés par digestion à la pronase de type XIV (2 mg/ml pendant 15 minutes; Sigma), suivie d'une digestion à la collagénase de type II (2 mg/ml pendant une nuit; Gibco). Les cellules sont ensuite ensemencées à 4×10^4 cellules/cm^2 dans du milieu Eagle modifié de Dulbecco (DMEM) supplémenté avec 10% de sérum de veau foetal (SVF) avec un cocktail d'antibiotiques. Elles sont ensuite incubées à 37°C dans une atmosphère humidifiée contenant 5% de CO2.
# Pour les trois types cellulaires, les cellules ont été amplifiées dans une enceinte humide à 37°C sous 5% de CO2. Les milieux de culture sont changés 2 à 3 fois par semaine. Un test mycoplasme a été réalisé afin de vérifier qu'elles ne sont pas contaminées. […]
compound,measurement,setting,value
Cc1ccc(C(=O)c2cc(O)c(O)c([N+](=O)[O-])c2)cc1 [tolcapone],dommages articulaires (étude histologique),[1],réduit les dommages articulaires
same,dégradation du cartilage (étude histologique),[1],très fortement limité la dégradation du cartilage
same,douleur induite (Von Frey),[2],réduit nettement la douleur induite
same,expression de gènes impliqués dans le catabolisme (tel que MMP13),[3]; figure 3A,réduit notamment l'expression de gènes impliqués dans le catabolisme (tel que MMP13)
same,expression de gènes impliqués dans l'inflammation (tel que l'IL-6),[3]; figure 3B,réduit notamment l'expression

# Source: EP4360627A1, “TREATMENT OF OSTEOARTHRITIS WITH COMT INHIBITORS” (Institut National de la Santé et de la Recherche Médicale …, priority 2022, dated 2024)
